We go through 31 molecules from patent publication US9079866B2, “Flap modulators” (JANSSEN PHARMACEUTICA NV, priority 2013, dated 2015).

One test has as its target human FLAP (Homo sapiens (Human), UniProt P20292). Briefly: FLAP binding assay (HTRF format). In short, it runs like this: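 Read-out is the HTRF ratio. Each reported figure averages two assay plates on which samples were tested in duplicate.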
The test system of test [1] is leukotriene pathway in human whole blood (LTB4 levels). Briefly: Human whole blood assay (A23187-stimulated LTB4). The test is classed as cell-based. The settings on record: Homo sapiens, read-out: LTB4 IC50 1:1. In short, it runs like this:
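Compounds are pre-incubated 15 min at 37° Celsius in RPMI-diluted (1:1) heparinised whole blood before a 30 min A23187 stimulus (7 μg/mL). Plasma LTB4 is read by immunoassay kit, with IC50 calculated from a 4-parameter equation.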

Where [2] appears, read: human FLAP wild type, HTRF format, average of two plates, duplicates.
Where [3] appears, read: human whole blood diluted 1:1 in RPMI, A23187-stimulated LTB4.
The mark [4] stands for this setting: human whole blood diluted 1:1, A23187-stimulated.

Structures can show the parent of a compound that is named as a salt. Where two headings read alike, the source gives them in different places. A value given as a limit tells only on which side of the number the result lay.

Sequence of human FLAP (P20292 whole entry): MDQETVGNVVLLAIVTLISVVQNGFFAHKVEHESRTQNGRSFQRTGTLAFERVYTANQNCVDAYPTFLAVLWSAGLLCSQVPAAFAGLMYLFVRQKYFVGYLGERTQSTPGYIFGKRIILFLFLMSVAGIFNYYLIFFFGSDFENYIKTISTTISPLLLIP

Consider `Nc1cnc(-c2ccc(-c3ccccc3Sc3ncncc3N)cc2F)cn1` [Example 217, 4-{[4′-(5-Aminopyrazin-2-yl)-3′-fluorobiphenyl-2-yl]sulfanyl}pyrimidin-5-amine hydrochloride], for which, on human FLAP (setting [2]), the Ki was 1 nM. Also, the IC50 in test [1] (setting [3]) amounted to 9 nM.
On the same counts, the results for `NCCNS(=O)(=O)c1ccccc1-c1ccc(-c2cnc(N)cn2)c(F)c1` [Example 152, N-(2-Aminoethyl)-4′-(5-aminopyrazin-2-yl)-3′-fluorobiphenyl-2-sulfonamide] are 81 nM and 537 nM.
With `CC(C)(O)CNS(=O)(=O)c1ccccc1-c1ccc(-c2cnc(N)nc2)c(F)c1` [Example 272, 4′-(2-Aminopyrimidin-5-yl)-3′-fluoro-N-(2-hydroxy-2-methylpropyl)biphenyl-2-sulfonamide trifluoroacetic acid salt], at human FLAP (read-out: FLAP Binding wild type HTRF Ki), the Ki is 32 nM. Also, in test [1] (setting [3]), the IC50 was 125 nM.
`Nc1cnc(-c2ccc(-c3ccccc3Oc3ccnc(N)n3)cc2F)cn1` [Example 533, 4-{[4′-(5-Aminopyrazin-2-yl)-3′-fluorobiphenyl-2-yl]oxy}pyrimidin-2-amine] had an inhibition constant Ki on human FLAP (wild type FLAP, HTRF format) of 5 nM. Besides, in test [1] (setting [4]), the IC50 came to 23 nM.
On the same counts, the results for `Fc1cc(-c2ccccc2Oc2ncccn2)ccc1-c1cnc2[nH]ccc2c1` [Example 525, 5-[3-Fluoro-2′-(pyrimidin-2-yloxy)biphenyl-4-yl]-1H-pyrrolo[2,3-b]pyridine] are 3 nM and 36 nM.
On the same counts, the results for `CC(CO)NS(=O)(=O)c1ccccc1-c1ccc(-c2cnc(N)c(C#N)n2)c(F)c1` (stereo in doubt) [Example 410, 4′-(5-amino-6-cyanopyrazin-2-yl)-3′-fluoro-N-[(1R)-2-hydroxy-1-methylethyl]biphenyl-2-sulfonamide] are 4 nM and 88 nM.
On the same counts, the results for `COCCCS(=O)(=O)c1ncccc1-c1ccc(-c2cnc(N)cn2)c(F)c1` [Example 818, 5-(2-Fluoro-4-(2-((3-methoxypropyl)sulfonyl)pyridine-3-yl)phenyl)pyrazin-2-amine hydrogen chloride salt] are 27.2 nM and 51.6 nM.
As for `CC(C)(CO)NS(=O)(=O)c1ccccc1-c1ccc(-c2ccc(N)nc2)c(F)c1` [Example 665, 4′-(6-Aminopyridin-3-yl)-3′-fluoro-N-(1-hydroxy-2-methylpropan-2-yl)-[1,1′-biphenyl]-2-sulfonamide], the Ki at human FLAP (wild type FLAP, HTRF format) worked out at 2.6 nM. Also, in test [1] (setting [4]), the IC50 came to 22.4 nM.
`Nc1cnc(-c2ccc(-c3ccccc3S(=O)(=O)N[C@H]3CCNC3=O)cc2F)cn1` [Example 107, (S)-4′-(5-Aminopyrazin-2-yl)-3′-fluoro-N-(2-oxopyrrolidin-3-yl)-[1,1′-biphenyl]-2-sulfonamide] came in with a Ki on human FLAP (setting [2]) of 16 nM. Further, the IC50 in test [1] (setting [3]) was 132 nM.
`Nc1ncc(-c2ccc(-c3ccccc3Sc3ccnc(N)n3)cc2F)cn1` [Example 335, 4-{[4′-(2-Aminopyrimidin-5-yl)-3′-fluorobiphenyl-2-yl]sulfanyl}pyrimidin-2-amine formate salt]: at human FLAP (setting [2]), the affinity corresponds to a Ki of 2 nM. In addition, in test [1] (setting [3]), the IC50 is 37 nM.
With `C[C@H](CO)NS(=O)(=O)c1ccccc1-c1ccc(-c2cnc(N)nc2)nc1` [Example 694, 2-[6-(2-Aminopyrimidin-5-yl)pyridin-3-yl]-N-[(1R)-2-hydroxy-1-methylethyl]benzenesulfonamide], the Ki at human FLAP (wild type FLAP, HTRF format) is 676 nM. Further, the IC50 in test [1] (setting [4]) was found to be 1010 nM.
On the same counts, the results for `NC(=O)C1CCN(S(=O)(=O)c2ccccc2-c2ccc(-c3cnc(N)nc3)c(F)c2)CC1` [Example 709, 1-((4′-(2-Aminopyrimidin-5-yl)-3′-fluoro-[1,1′-biphenyl]-2-yl)sulfonyl)piperidine-4-carboxamide] are 5.4 nM and 268 nM.
Turning to `Nc1ncc(-c2ccc(-c3ccccc3S(=O)(=O)N3CCCCC3)cc2F)cn1` [Example 301, 5-[3-Fluoro-2′-(piperidin-1-ylsulfonyl)biphenyl-4-yl]pyrimidin-2-amine trifluoroacetic acid salt], the affinity at human FLAP (setting [2]), expressed as Ki, was 13 nM. The IC50 in test [1] (setting [3]) is 204 nM.
`Nc1cc(Oc2cc(C(F)(F)F)ccc2-c2ccc(-c3cnc(N)nc3)c(F)c2)ncn1` [Example 561, 5-{2′-[(6-Aminopyrimidin-4-yl)oxy]-3-fluoro-4′-(trifluoromethyl)biphenyl-4-yl}pyrimidin-2-amine] gave a Ki on human FLAP (wild type FLAP, HTRF format) of 4 nM. Besides, the IC50 in test [1] (setting [4]) stood at 43 nM.
At human FLAP (setting [2]), `Nc1cnc(-c2ccc(-c3ccccc3S(=O)(=O)C3CC3)cc2F)cn1` [Example 197, 5-[2′-(Cyclopropylsulfonyl)-3-fluorobiphenyl-4-yl]pyrazin-2-amine] registered a Ki of 10 nM. Besides, the IC50 in test [1] (setting [3]) is 83 nM.
On the same counts, the results for `Nc1ccc(-c2ccc(-c3ccccc3S(=O)(=O)NCC3(O)CNC3)cc2F)cn1` [Example 358, 4′-(6-Aminopyridin-3-yl)-3′-fluoro-N-((3-hydroxyazetidin-3-yl)methyl)-[1,1′-biphenyl]-2-sulfonamide] are 55 nM and more than 10000 nM.
At human FLAP (wild type FLAP, HTRF format), `N#Cc1cccc(COc2ccccc2-c2ccc(-c3cnc(N)cn3)c(F)c2)n1` [Example 530, 6-({[4′-(5-Aminopyrazin-2-yl)-3′-fluorobiphenyl-2-yl]oxy}methyl)pyridine-2-carbonitrile] displayed an inhibitory constant (Ki) of 34 nM. Moreover, the IC50 in test [1] (setting [4]) came out at 1110 nM.
As to `Nc1ncc(-c2ccc(-c3ccccc3S(=O)(=O)N[C@H]3CCCC[C@H]3O)cc2F)cn1` (racemic) [Example 259, racemic 4′-(2-Aminopyrimidin-5-yl)-3′-fluoro-N-[(cis)-2-hydroxycyclohexyl]biphenyl-2-sulfonamide], the inhibitory constant (Ki) on human FLAP (setting [2]) was determined as 5 nM. Further, the IC50 in test [1] (setting [3]) came to 34 nM.
The molecule `COc1nc(-c2ccc(-c3ccccc3S(=O)(=O)NC(C)(C)C)cc2F)cnc1N` [Example 433, 4′-(5-Amino-6-methoxypyrazin-2-yl)-N-tert-butyl-3′-fluorobiphenyl-2-sulfonamide] registered a Ki on human FLAP (wild type FLAP, HTRF format) of 1 nM. The half-inhibitory concentration (IC50) in test [1] (setting [4]) came to 25 nM.
`CC(C)(C)NS(=O)(=O)c1ccccc1-c1ccc(-c2ncc(N)nc2C#N)c(F)c1` [Example 435, 4′-(5-Amino-3-cyanopyrazin-2-yl)-N-tert-butyl-3′-fluorobiphenyl-2-sulfonamide]: on human FLAP (wild type FLAP, HTRF format), the Ki was 9 nM. The IC50 in test [1] (setting [4]) stood at 166 nM.
On the same counts, the results for `Nc1cnc(-c2ccc(-c3ccccc3N3CCCS3(=O)=O)cc2F)cn1` [Example 856, 5-[2′-(1,1-Dioxidoisothiazolidin-2-yl)-3-fluorobiphenyl-4-yl]pyrazin-2-amine] are 60.5 nM and 83.9 nM.
On the same counts, the results for `Nc1cnc(-c2ccc(-c3ccc(C(F)(F)F)cc3-c3cnc(N)nc3)cc2F)cn1` [Example 853, 5-[4′-(5-Aminopyrazin-2-yl)-3′-fluoro-4-(trifluoromethyl)biphenyl-2-yl]pyrimidin-2-amine] are 4.7 nM and 45.6 nM.
For `CNS(=O)(=O)c1ccccc1-c1ccc(-c2ccc3[nH]cnc3c2)c(F)c1` [Example 423, 4′-(1H-Benzimidazol-5-yl)-3′-fluoro-N-methylbiphenyl-2-sulfonamide] the same measures were 284 nM and 4800 nM.
Turning to `CC(C)CNS(=O)(=O)c1ccccc1-c1ccc(-c2ccc(N)nc2)c(F)c1` [Example 348, 4′-(6-Aminopyridin-3-yl)-3′-fluoro-N-iso-butyl-[1,1′-biphenyl]-2-sulfonamide], the Ki at human FLAP (setting [2]) was 5 nM. For the same molecule, the IC50 in test [1] (setting [3]) came out at 106 nM.
As to `CN(C)S(=O)(=O)Nc1ccccc1-c1ccc(-c2cnc(N)cn2)c(F)c1` [Example 182, N′-[4′-(5-Aminopyrazin-2-yl)-3′-fluorobiphenyl-2-yl]-N,N-dimethylsulfamide], the Ki on human FLAP (setting [2]) worked out at 20 nM. Besides, the IC50 in test [1] (setting [3]) is 217 nM.
On the same counts, the results for `CS(=O)(=O)c1ccc(CSc2ccccc2-c2ccc(-c3cnc(N)cn3)c(F)c2)cc1` [Example 205, 5-(3-Fluoro-2′-{[4-(methylsulfonyl)benzyl]sulfanyl}biphenyl-4-yl)pyrazin-2-amine] are 8 nM and 66 nM.
For `CS(=O)(=O)c1cc(C(F)(F)F)ccc1-c1ccc(-c2cnc(N)cn2)c(F)c1` [Example 207, 5-[3-Fluoro-2′-(methylsulfonyl)-4′-(trifluoromethyl)biphenyl-4-yl]pyrazin-2-amine] the same measures were 17 nM and 205 nM.
On the same counts, the results for `O=S(=O)(c1ccccc1-c1ccc(-c2cnc3c(c2)OCCN3)c(F)c1)N1CCCCC1` [Example 386, 7-[3-Fluoro-2′-(piperidin-1-ylsulfonyl)biphenyl-4-yl]-3,4-dihydro-2H-pyrido[3,2-b][1,4]oxazine] are 2 nM and 77 nM.
Take `CC(C)(C)NS(=O)(=O)c1ccccc1-c1ccc(-c2cn3cccc(F)c3n2)c(F)c1` [Example 580, N-tert-Butyl-3′-fluoro-4′-(8-fluoroimidazo[1,2-a]pyridin-2-yl)biphenyl-2-sulfonamide]: the affinity on human FLAP (wild type FLAP, HTRF format), expressed as Ki, was 55 nM. In addition, the IC50 in test [1] (setting [4]) was found to be 5000 nM.
Regarding `Nc1cnc(-c2ccc(-c3ccccc3S(N)(=O)=O)cc2F)cn1` [Example 5, 4′-(5-Aminopyrazin-2-yl)-3′-fluorobiphenyl-2-sulfonamide], the Ki at human FLAP (setting [2]) turned out to be 35 nM. The IC50 in test [1] (setting [3]) was 370 nM.
In turn, `Nc1ncc(-c2ccc(-c3cccnc3S(=O)(=O)C3CCC3)cc2F)cn1` [Example 805, 5-(4-(2-(Cyclobutylsulfonyl)pyridin-3-yl)-2-fluorophenyl)pyrimidin-2-amine hydrochloride] gave a Ki at human FLAP (wild type FLAP, HTRF format) of 29.7 nM. For the same molecule, the IC50 in test [1] (setting [4]) was 353 nM.
